Results published in paper PMC10726920 (Cancer Medicine, 2023).

System: patients with acute lymphoblastic leukemia
Test: Adverse events (CTCAE version 4.0), Phase II study NCI-9775 of sapanisertib monotherapy
Assay type: in vivo
Protocol: Responders could continue on the same dose or proceed to allogeneic hematopoietic cell transplant if available. Non‐responders (but tolerating drug) could increase their dose to 4 mg orally for 21 days every 28 days (dose level + 1) starting in Cycle 3 and 4 mg orally continuously (dose level + 2) starting in Cycle 5 (if they tolerated dose level + 1). Dose reduction was recommended for toxicity (dose level − 1: 2 mg daily for 21 days every 28 days; dose level − 2: 2 mg daily for 5 days/week for 3 weeks every 4 weeks). […] Intrathecal chemotherapy was allowed per institutional standard policies. In‐home blood glucose monitoring was performed daily to monitor blood sugar (a glucometer was given to every patient on the study). Discontinuation of therapy was recommended for disease progression, severe toxicity, lack of response, proceeding to hematopoietic cell transplant, or prolonged delay of the subsequent cycle (>1 month delay for therapy‐related toxicity or >2 months delay for unrelated toxicity).
The primary endpoint was the proportion of successes, which was estimated by the number of successes divided by the total number of evaluable patients. Secondary endpoints of duration of response (CR or CRi) and overall survival (OS) were evaluated using Kaplan–Meier techniques; the frequency of proceeding to allogeneic stem cell transplant after achieving response and adverse events (AEs), as evaluated using reported the NCI Common Terminology Criteria for Adverse Events (CTCAE) version 4.0, were presented using descriptive statistics.

[1] = Grade 3–4, at least possibly related
[2] = Grade >2 hematological, abstract
[3] = grade 3–4 non‐hematologic, abstract
[4] = possibly related, B-Cell, 10 evaluable
[5] = possibly related, T-Cell, 5 evaluable
[6] = treatment-related, 15 evaluable

CC(C)n1nc(-c2ccc3oc(N)nc3c2)c2c(N)ncnc21 [sapanisertib]
patients with a grade 3 or higher AE related to the study drug (15 evaluated): 9 patients | patients with at least 1 grade 3 AE (15 evaluated): 15 patients | anemia, patients [1]: 4 | leukocytosis, patients [1]: 1 | leukopenia, patients [1]: 2 | lymphopenia, patients [1]: 2 | neutropenia, patients [1]: 1 | thrombocytopenia, patients [1]: 4 | abdominal pain, patients (Grade 3–4 treatment‐related): 1 | anorexia, patients (Grade 3–4 treatment‐related): 1 | bilirubin increase, patients (Grade 3–4 treatment‐related): 1 | confusion, patients (Grade 3–4 treatment‐related): 1 | delirium, patients (Grade 3–4 treatment‐related): 1 | febrile neutropenia, patients (Grade 3–4 treatment‐related): 1 | fibrinogen decrease, patients (Grade 3–4 treatment‐related): 1 | hyperglycemia, patients (Grade 3–4 treatment‐related): 2 | mucositis, patients (Grade 3–4 treatment‐related): 3 | pneumonitis, patients (Grade 3–4 treatment‐related): 1 | thoracic disease, patients (Grade 3–4 treatment‐related): 1 | leukopenia, patients [2]: 3 | lymphopenia, patients [2]: 2 | neutropenia, patients [2]: 1 | thrombocytopenia, patients [2]: 1 | patients with at least one grade ≥3 non‐hematologic AE (Six of 11 patients in clearance-toxicity analysis): 54.5% | Hyperglycemia, percent of patients (any grade, discussion): 25% | hyperglycemia, patients (any grade, discussion): 4 | Hyperglycemia G2 (discussion): 2 patients | Hyperglycemia G3 (discussion): 2 patients | median time to hyperglycemia (discussion): 6 days | mucositis (discussion): 3 patients | anorexia [3]: 1 patient | confusion [3]: 1 patient | hepatic failure [3]: 1 patient | hyperglycemia [3]: 2 patients | mucositis [3]: 3 patients | pneumonitis [3]: 1 patient | seizures [3]: 1 patient | Abdominal pain grade 3 [4]: 0 (0%) N (%) | Abdominal pain grade 4 [4]: 0 (0%) N (%) | Abdominal pain grade 5 [4]: 0 (0%) N (%) | Anemia grade 3 [4]: 1 (10%) N (%) | Anemia grade 4 [4]: 0 (0%) N (%) | Anemia grade 5 [4]: 0 (0%) N (%) | Anorexia grade 3 [4]: 1 (10%) N (%) | Anorexia grade 4 [4]: 0 (0%) N (%) | Anorexia grade 5 [4]: 0 (0%) N (%) | Confusion grade 3 [4]: 1 (10%) N (%) | Confusion grade 4 [4]: 0 (0%) N (%) | Confusion grade 5 [4]: 0 (0%) N (%) | Fatigue grade 3 [4]: 1 (10%) N (%) | Fatigue grade 4 [4]: 0 (0%) N (%) | Fatigue grade 5 [4]: 0 (0%) N (%) | Febrile neutropenia grade 3 [4]: 1 (10%) N (%) | Febrile neutropenia grade 4 [4]: 0 (0%) N (%) | Febrile neutropenia grade 5 [4]: 0 (0%) N (%) | Hyperglycemia grade 3 [4]: 2 (20%) N (%) | Hyperglycemia grade 4 [4]: 0 (0%) N (%) | Hyperglycemia grade 5 [4]: 0 (0%) N (%) | Leukocytosis grade 3 [4]: 0 (0%) N (%) | Leukocytosis grade 4 [4]: 0 (0%) N (%) | Leukocytosis grade 5 [4]: 0 (0%) N (%) | Lymphocyte count decreased grade 3 [4]: 2 (20%) N (%) | Lymphocyte count decreased grade 4 [4]: 0 (0%) N (%) | Lymphocyte count decreased grade 5 [4]: 0 (0%) N (%) | Mucositis oral grade 3 [4]: 3 (30%) N (%) | Mucositis oral grade 4 [4]: 0 (0%) N (%) | Mucositis oral grade 5 [4]: 0 (0%) N (%) | Neoplasms benign, mal, uncpec - Oth spec grade 3 [4]: 0 (0%) N (%) | Neoplasms benign, mal, uncpec - Oth spec grade 4 [4]: 0 (0%) N (%) | Neoplasms benign, mal, uncpec - Oth spec grade 5 [4]: 0 (0%) N (%) | Neutrophil count decreased grade 3 [4]: 0 (0%) N (%) | Neutrophil count decreased grade 4 [4]: 1 (10%) N (%) | Neutrophil count decreased grade 5 [4]: 0 (0%) N (%) | Platelet count decreased grade 3 [4]: 0 (0%) N (%) | Platelet count decreased grade 4 [4]: 1 (10%) N (%) | Platelet count decreased grade 5 [4]: 0 (0%) N (%) | Pneumonitis grade 3 [4]: 0 (0%) N (%) | Pneumonitis grade 4 [4]: 0 (0%) N (%) | Pneumonitis grade 5 [4]: 0 (0%) N (%) | Resp, thoracic, mediastinal - Oth spec grade 3 [4]: 0 (0%) N (%) | Resp, thoracic, mediastinal - Oth spec grade 4 [4]: 1 (10%) N (%) | Resp, thoracic, mediastinal - Oth spec grade 5 [4]: 0 (0%) N (%) | White blood cell decreased grade 3 [4]: 0 (0%) N (%) | White blood cell decreased grade 4 [4]: 2 (20%) N (%) | White blood cell decreased grade 5 [4]: 0 (0%) N (%) | Abdominal pain grade 3 [5]: 1 (20%) N (%) | Abdominal pain grade 4 [5]: 0 (0%) N (%) | Abdominal pain grade 5 [5]: 0 (0%) N (%) | Anemia grade 3 [5]: 0 (0%) N (%) | Anemia grade 4 [5]: 0 (0%) N (%) | Anemia grade 5 [5]: 0 (0%) N (%) | Anorexia grade 3 [5]: 0 (0%) N (%) | Anorexia grade 4 [5]: 0 (0%) N (%) | Anorexia grade 5 [5]: 0 (0%) N (%) | Confusion grade 3 [5]: 0 (0%) N (%) | Confusion grade 4 [5]: 0 (0%) N (%) | Confusion grade 5 [5]: 0 (0%) N (%) | Fatigue grade 3 [5]: 0 (0%) N (%) | Fatigue grade 4 [5]: 0 (0%) N (%) | Fatigue grade 5 [5]: 0 (0%) N (%) | Febrile neutropenia grade 3 [5]: 0 (0%) N (%) | Febrile neutropenia grade 4 [5]: 0 (0%) N (%) | Febrile neutropenia grade 5 [5]: 0 (0%) N (%) | Hyperglycemia grade 3 [5]: 0 (0%) N (%) | Hyperglycemia grade 4 [5]: 0 (0%) N (%) | Hyperglycemia grade 5 [5]: 0 (0%) N (%) | Leukocytosis grade 3 [5]: 1 (20%) N (%) | Leukocytosis grade 4 [5]: 0 (0%) N (%) | Leukocytosis grade 5 [5]: 0 (0%) N (%) | Lymphocyte count decreased grade 3 [5]: 0 (0%) N (%) | Lymphocyte count decreased grade 4 [5]: 0 (0%) N (%) | Lymphocyte count decreased grade 5 [5]: 0 (0%) N (%) | Mucositis oral grade 3 [5]: 0 (0%) N (%) | Mucositis oral grade 4 [5]: 0 (0%) N (%) | Mucositis oral grade 5 [5]: 0 (0%) N (%) | Neoplasms benign, mal, uncpec - Oth spec grade 3 [5]: 1 (20%) N (%) | Neoplasms benign, mal, uncpec - Oth spec grade 4 [5]: 0 (0%) N (%) | Neoplasms benign, mal, uncpec - Oth spec grade 5 [5]: 0 (0%) N (%) | Neutrophil count decreased grade 3 [5]: 0 (0%) N (%) | Neutrophil count decreased grade 4 [5]: 0 (0%) N (%) | Neutrophil count decreased grade 5 [5]: 0 (0%) N (%) | Platelet count decreased grade 3 [5]: 2 (40%) N (%) | Platelet count decreased grade 4 [5]: 1 (20%) N (%) | Platelet count decreased grade 5 [5]: 0 (0%) N (%) | Pneumonitis grade 3 [5]: 1 (20%) N (%) | Pneumonitis grade 4 [5]: 0 (0%) N (%) | Pneumonitis grade 5 [5]: 0 (0%) N (%) | Resp, thoracic, mediastinal - Oth spec grade 3 [5]: 0 (0%) N (%) | Resp, thoracic, mediastinal - Oth spec grade 4 [5]: 0 (0%) N (%) | Resp, thoracic, mediastinal - Oth spec grade 5 [5]: 0 (0%) N (%) | White blood cell decreased grade 3 [5]: 0 (0%) N (%) | White blood cell decreased grade 4 [5]: 0 (0%) N (%) | White blood cell decreased grade 5 [5]: 0 (0%) N (%) | Abdominal pain grade 1 [6]: 0 (0) N (%) | Abdominal pain grade 2 [6]: 0 (0) N (%) | Abdominal pain grade 3 [6]: 1 (7) N (%) | Abdominal pain grade 4 [6]: 0 (0) N (%) | Abdominal pain grade 5 [6]: 0 (0) N (%) | Anal mucositis grade 1 [6]: 0 (0) N (%) | Anal mucositis grade 2 [6]: 1 (7) N (%) | Anal mucositis grade 3 [6]: 0 (0) N (%) | Anal mucositis grade 4 [6]: 0 (0) N (%) | Anal mucositis grade 5 [6]: 0 (0) N (%) | Anemia grade 1 [6]: 0 (0) N (%) | Anemia grade 2 [6]: 0 (0) N (%) | Anemia grade 3 [6]: 4 (27) N (%) | Anemia grade 4 [6]: 0 (0) N (%) | Anemia grade 5 [6]: 0 (0) N (%) | Anorexia grade 1 [6]: 0 (0) N (%) | Anorexia grade 2 [6]: 1 (7) N (%) | Anorexia grade 3 [6]: 1 (7) N (%) | Anorexia grade 4 [6]: 0 (0) N (%) | Anorexia grade 5 [6]: 0 (0) N (%) | Anxiety grade 1 [6]: 1 (7) N (%) | Anxiety grade 2 [6]: 0 (0) N (%) | Anxiety grade 3 [6]: 0 (0) N (%) | Anxiety grade 4 [6]: 0 (0) N (%) | Anxiety grade 5 [6]: 0 (0) N (%) | Aspartate aminotransferase increased grade 1 [6]: 1 (7) N (%)
